# EP4799646A1, “COMPOSITION AND METHOD FOR INCREASING BIOAVAILABILITY OF ACTIVE INGREDIENT” (Everfront Biotech Inc., priority 2023, dated 2025)
# Read-outs that look alike come from different tables or passages of the source.
# Assays:
# [1] = Appearance (phase separation) of compositions after preparation; solubility of BP in sesame oil; format: physicochemical; details: concluded from absence of phase separation in Compositions 1 to 4
# Description: In a glass bottle, components were mixed with the dosage ratios shown in Table 1 to provide a mixture, and the mixture was rapidly stirred with a magnetic stirrer for 20 minutes to form a homogeneous liquid, thereby respectively preparing Compositions 1 to 4. After removing the magnetic stirrer, the glass bottle was tightly sealed and its appearance was observed and photographed, the results are shown in FIG. 1. Table 1: Volume Percentages of Composition in Compositions 1 to 4.
# [2] = system: pancreatic cancer cell lines Mia-PaCa2; experiment: MTT assay, IC50 against pancreatic cancer cells (cytotoxicity study II); format: cell-based; details: Homo sapiens
# Description: The culture medium in each well of the cell culture plates was removed, and MTT reagent was added (to reach a final concentration of 0.5 mg/mL in each well). The plates were then placed in a 37°C, 5% CO2 incubator for 2 to 4 hours to form purple needle-like formazan crystals. Subsequently, the solution was aspirated, and 500 µL of dimethyl sulfoxide (DMSO) was added to each well. After shaking with a shaker for 5 to 10 minutes to completely dissolve the purple crystals, the absorbance at a wavelength of 570 or 595 nm was measured using an ELISA reader. The survival rate of the cells was calculated based on the absorbance, with the blank group as the baseline (the survival rate of the blank group was set to 100%). The data of the experimental group serum collected 2 hours after oral administration of the soft capsules are shown in FIG. 7; the data of the experimental group serum collected at 1, 4, 8, or 24 hours are shown in FIG. 8.
# Cell cultures in this example were all conducted in an environment of 95% relative humidity, 5% CO2, and 37°C.
# Pancreatic cancer cell lines Mia-PaCa2 were grouped and respectively cultured in 96-well cell culture plates for 24 hours using the following culture media: • 1. "Z-BP" Group: Mia-PaCa2 cell culture medium supplemented with Z-BP. • 2. […]
smiles,measurement,setting,value
"CCCC=C1OC(=O)c2ccccc21 [BP, n-butylidenephthalide]",solubility in sesame oil,[1],good solubility
"CCC/C=C1\OC(=O)c2ccccc21 [Z-BP, (Z)-n-butylidenephthalide]",IC50,"[2]; MIA PaCa-2, 24 h",63.8 µg/mL
"CCC/C=C1\OC(=O)C2=C1CCC=C2 [LG, Ligustilide]",IC50,"[2]; MIA PaCa-2, Mia-PaCa2 cells, 24 hours, MTT, oil groups: active mixed with oil in equal proportions, read-out: IC50",44.1 µg/mL
